From ChEMBL document CHEMBL1201861, “Genomics of Drug Sensitity in Cancer screening data, Wellcome Trust Sanger Institute”

tested on: Ca-Ski; experiment: cells; type: functional, cell-based; details: Homo sapiens;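 note: cell viability assay measuring inhibition of Ca-Ski cell growth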
Description: SANGER: Inhibition of human Ca-Ski cell growth in a cell viability assay.

Row | SMILES | IC50
1 | CC1=C(/C=C/C(C)=C/C=C/C(C)=C/C(=O)O)C(C)(C)CCC1 [TRETINOIN] | > 10 µM

tested on: DOK; experiment: cells; type: functional, cell-based; details: Homo sapiens;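 note: cell viability assay read-out, values reflect inhibition of cell growth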
Description: SANGER: Inhibition of human DOK cell growth in a cell viability assay.

Row | SMILES | IC50
2 | CC1=C(/C=C/C(C)=C/C=C/C(C)=C/C(=O)O)C(C)(C)CCC1 [TRETINOIN] | > 10 µM

tested on: DU-145; experiment: cells; type: functional, cell-based; details: Homo sapiens
Description: SANGER: Inhibition of human DU-145 cell growth in a cell viability assay.

Row | SMILES | IC50
3 | CC1=C(/C=C/C(C)=C/C=C/C(C)=C/C(=O)O)C(C)(C)CCC1 [TRETINOIN] | > 10 µM

tested on: EC-GI-10; experiment: cells; type: functional, cell-based, Homo sapiens; details: Homo sapiens, EC-GI-10
Description: SANGER: Inhibition of human EC-GI-10 cell growth in a cell viability assay.

Row | SMILES | IC50
4 | CC1=C(/C=C/C(C)=C/C=C/C(C)=C/C(=O)O)C(C)(C)CCC1 [TRETINOIN] | > 10 µM

tested on: GP5d; experiment: cells; type: functional, cell-based; details: Homo sapiens;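 note: growth inhibition of human GP5d cells, read out with a cell viability assay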
Description: SANGER: Inhibition of human GP5d cell growth in a cell viability assay.

Row | SMILES | IC50
5 | CC1=C(/C=C/C(C)=C/C=C/C(C)=C/C(=O)O)C(C)(C)CCC1 [TRETINOIN] | > 10 µM

tested on: HCC1569; experiment: cells; type: functional, cell-based; details: Homo sapiens;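 note: growth inhibition of human HCC1569 cells, read out with a cell viability assay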
Description: SANGER: Inhibition of human HCC1569 cell growth in a cell viability assay.

Row | SMILES | IC50
6 | CC1=C(/C=C/C(C)=C/C=C/C(C)=C/C(=O)O)C(C)(C)CCC1 [TRETINOIN] | > 10 µM

tested on: HO-1-N-1; experiment: cells; type: functional, cell-based; details: Homo sapiens;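 note: growth inhibition of human HO-1-N-1 cells, read out with a cell viability assay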
Description: SANGER: Inhibition of human HO-1-N-1 cell growth in a cell viability assay.

Row | SMILES | IC50
7 | CC1=C(/C=C/C(C)=C/C=C/C(C)=C/C(=O)O)C(C)(C)CCC1 [TRETINOIN] | > 10 µM

tested on: HT1197; experiment: cells; type: functional, cell-based, HT-1197; details: Homo sapiens
Description: SANGER: Inhibition of human HT-1197 cell growth in a cell viability assay.

Row | SMILES | IC50
8 | CC1=C(/C=C/C(C)=C/C=C/C(C)=C/C(=O)O)C(C)(C)CCC1 [TRETINOIN] | > 10 µM

tested on: HuP-T4; experiment: cells; type: functional, cell-based; details: Homo sapiens;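 note: cell viability assay measuring how much HuP-T4 cell growth is inhibited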
Description: SANGER: Inhibition of human HuP-T4 cell growth in a cell viability assay.

Row | SMILES | IC50
9 | CC1=C(/C=C/C(C)=C/C=C/C(C)=C/C(=O)O)C(C)(C)CCC1 [TRETINOIN] | > 10 µM

tested on: IGR-1; experiment: cells; type: functional, cell-based; details: Homo sapiens;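 note: growth inhibition of human IGR-1 cells, read out with a cell viability assay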
Description: SANGER: Inhibition of human IGR-1 cell growth in a cell viability assay.

Row | SMILES | IC50
10 | CC1=C(/C=C/C(C)=C/C=C/C(C)=C/C(=O)O)C(C)(C)CCC1 [TRETINOIN] | > 10 µM

tested on: IGROV-1; experiment: cells; type: functional, cell-based; details: Homo sapiens;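 note: reduction of IGROV-1 cell growth, read out with a viability assay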
Description: SANGER: Inhibition of human IGROV-1 cell growth in a cell viability assay.

Row | SMILES | IC50
11 | CC1=C(/C=C/C(C)=C/C=C/C(C)=C/C(=O)O)C(C)(C)CCC1 [TRETINOIN] | > 10 µM

tested on: J82; experiment: cells; type: functional, cell-based; details: Homo sapiens;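 note: growth inhibition of J82 cells, read out with a cell viability assay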
Description: SANGER: Inhibition of human J82 cell growth in a cell viability assay.

Row | SMILES | IC50
12 | CC1=C(/C=C/C(C)=C/C=C/C(C)=C/C(=O)O)C(C)(C)CCC1 [TRETINOIN] | > 10 µM

tested on: KYSE-520 cell line; experiment: cells; type: functional, cell-based; details: Homo sapiens;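 note: growth inhibition of human KYSE-520 cells, read out with a viability assay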
Description: SANGER: Inhibition of human KYSE-520 cell growth in a cell viability assay.

Row | SMILES | IC50
13 | CC1=C(/C=C/C(C)=C/C=C/C(C)=C/C(=O)O)C(C)(C)CCC1 [TRETINOIN] | > 10 µM

tested on: LU-99A; experiment: cells; type: functional, cell-based; details: Homo sapiens;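 note: growth inhibition of LU-99A cells, read out with a cell viability assay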
Description: SANGER: Inhibition of human LU-99A cell growth in a cell viability assay.

Row | SMILES | IC50
14 | CC1=C(/C=C/C(C)=C/C=C/C(C)=C/C(=O)O)C(C)(C)CCC1 [TRETINOIN] | > 10 µM

tested on: M14; experiment: cells; type: functional, cell-based; details: Homo sapiens;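 note: growth inhibition of M14 cells, read out with a cell viability assay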
Description: SANGER: Inhibition of human M14 cell growth in a cell viability assay.

Row | SMILES | IC50
15 | CC1=C(/C=C/C(C)=C/C=C/C(C)=C/C(=O)O)C(C)(C)CCC1 [TRETINOIN] | > 10 µM

tested on: MDA-MB-231; experiment: cells; type: functional, cell-based; details: Homo sapiens
Description: SANGER: Inhibition of human MDA-MB-231 cell growth in a cell viability assay.

Row | SMILES | IC50
16 | CC1=C(/C=C/C(C)=C/C=C/C(C)=C/C(=O)O)C(C)(C)CCC1 [TRETINOIN] | > 10 µM

tested on: MEL-JUSO; experiment: cells; type: functional, cell-based; details: Homo sapiens;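 note: growth inhibition of human MEL-JUSO cells, read out with a cell viability assay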
Description: SANGER: Inhibition of human MEL-JUSO cell growth in a cell viability assay.

Row | SMILES | IC50
17 | CC1=C(/C=C/C(C)=C/C=C/C(C)=C/C(=O)O)C(C)(C)CCC1 [TRETINOIN] | > 10 µM

tested on: MFE-280; experiment: cells; type: functional, cell-based; details: Homo sapiens;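 note: growth inhibition of MFE-280 cells, determined with a cell viability readout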
Description: SANGER: Inhibition of human MFE-280 cell growth in a cell viability assay.

Row | SMILES | IC50
18 | CC1=C(/C=C/C(C)=C/C=C/C(C)=C/C(=O)O)C(C)(C)CCC1 [TRETINOIN] | > 10 µM

tested on: MOLT-13; experiment: cells; type: functional, cell-based; details: Homo sapiens;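 note: IC50 for suppression of MOLT-13 cell growth, read out with a cell viability assay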
Description: SANGER: Inhibition of human MOLT-13 cell growth in a cell viability assay.

Row | SMILES | IC50
19 | CC1=C(/C=C/C(C)=C/C=C/C(C)=C/C(=O)O)C(C)(C)CCC1 [TRETINOIN] | 1.15 µM

tested on: NB14; experiment: cells; type: functional, cell-based, Homo sapiens; details: Homo sapiens, NB14;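 note: growth inhibition of NB14 cells measured with a cell viability assay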
Description: SANGER: Inhibition of human NB14 cell growth in a cell viability assay.

Row | SMILES | IC50
20 | CC1=C(/C=C/C(C)=C/C=C/C(C)=C/C(=O)O)C(C)(C)CCC1 [TRETINOIN] | 7.13 µM

tested on: NCI-H1573; experiment: cells; type: functional, cell-based; details: Homo sapiens;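 note: growth inhibition of NCI-H1573 cells, read out with a cell viability assay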
Description: SANGER: Inhibition of human NCI-H1573 cell growth in a cell viability assay.

Row | SMILES | IC50
21 | CC1=C(/C=C/C(C)=C/C=C/C(C)=C/C(=O)O)C(C)(C)CCC1 [TRETINOIN] | > 10 µM

tested on: NCI-H1755; experiment: cells; type: functional, cell-based; details: Homo sapiens;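 note: cell viability readout used to measure growth inhibition of NCI-H1755 cells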
Description: SANGER: Inhibition of human NCI-H1755 cell growth in a cell viability assay.

Row | SMILES | IC50
22 | CC1=C(/C=C/C(C)=C/C=C/C(C)=C/C(=O)O)C(C)(C)CCC1 [TRETINOIN] | > 10 µM

tested on: NCI-H1993; experiment: cells; type: functional, cell-based; details: Homo sapiens;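 note: growth inhibition of the cancer cell line, assessed with a cell viability assay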
Description: SANGER: Inhibition of human NCI-H1993 cell growth in a cell viability assay.

Row | SMILES | IC50
23 | CC1=C(/C=C/C(C)=C/C=C/C(C)=C/C(=O)O)C(C)(C)CCC1 [TRETINOIN] | > 10 µM

tested on: NCI-H2087; experiment: cells; type: functional, cell-based; details: Homo sapiens;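 note: growth inhibition determined with a cell viability readout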
Description: SANGER: Inhibition of human NCI-H2087 cell growth in a cell viability assay.

Row | SMILES | IC50
24 | CC1=C(/C=C/C(C)=C/C=C/C(C)=C/C(=O)O)C(C)(C)CCC1 [TRETINOIN] | > 10 µM

tested on: NCI-H2342; experiment: cells; type: functional, cell-based; details: Homo sapiens;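 note: growth inhibition of the cancer cell line, determined with a cell viability assay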
Description: SANGER: Inhibition of human NCI-H2342 cell growth in a cell viability assay.

Row | SMILES | IC50
25 | CC1=C(/C=C/C(C)=C/C=C/C(C)=C/C(=O)O)C(C)(C)CCC1 [TRETINOIN] | > 10 µM

tested on: NCI-H292; experiment: cells; type: functional, cell-based; details: Homo sapiens;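 note: growth inhibition of NCI-H292 cells, read out with a cell viability assay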
Description: SANGER: Inhibition of human NCI-H292 cell growth in a cell viability assay.

Row | SMILES | IC50
26 | CC1=C(/C=C/C(C)=C/C=C/C(C)=C/C(=O)O)C(C)(C)CCC1 [TRETINOIN] | > 10 µM

tested on: NCI-H520; experiment: cells; type: functional, cell-based; details: Homo sapiens;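 note: growth inhibition of NCI-H520 cells, measured by a cell viability assay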
Description: SANGER: Inhibition of human NCI-H520 cell growth in a cell viability assay.

Row | SMILES | IC50
27 | CC1=C(/C=C/C(C)=C/C=C/C(C)=C/C(=O)O)C(C)(C)CCC1 [TRETINOIN] | > 10 µM

tested on: OAW-28; experiment: cells; type: functional, cell-based; details: Homo sapiens;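 note: growth inhibition of OAW-28 cells, read out with a cell viability assay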
Description: SANGER: Inhibition of human OAW-28 cell growth in a cell viability assay.

Row | SMILES | IC50
28 | CC1=C(/C=C/C(C)=C/C=C/C(C)=C/C(=O)O)C(C)(C)CCC1 [TRETINOIN] | > 10 µM

tested on: OVCAR-5; experiment: cells; type: functional, cell-based; details: Homo sapiens;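 note: growth inhibition of human OVCAR-5 cells, read out with a cell viability assay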
Description: SANGER: Inhibition of human OVCAR-5 cell growth in a cell viability assay.

Row | SMILES | IC50
29 | CC1=C(/C=C/C(C)=C/C=C/C(C)=C/C(=O)O)C(C)(C)CCC1 [TRETINOIN] | > 10 µM

tested on: RPMI-2650; experiment: cells; type: functional, cell-based; details: Homo sapiens
Description: SANGER: Inhibition of human RPMI-2650 cell growth in a cell viability assay.

Row | SMILES | IC50
30 | CC1=C(/C=C/C(C)=C/C=C/C(C)=C/C(=O)O)C(C)(C)CCC1 [TRETINOIN] | > 10 µM

tested on: RVH-421; experiment: cells; type: functional, cell-based; details: Homo sapiens
Description: SANGER: Inhibition of human RVH-421 cell growth in a cell viability assay.

Row | SMILES | IC50
31 | CC1=C(/C=C/C(C)=C/C=C/C(C)=C/C(=O)O)C(C)(C)CCC1 [TRETINOIN] | > 10 µM

tested on: S-117; experiment: cells; type: functional, cell-based; details: Homo sapiens
Description: SANGER: Inhibition of human S-117 cell growth in a cell viability assay.

Row | SMILES | IC50
32 | CC1=C(/C=C/C(C)=C/C=C/C(C)=C/C(=O)O)C(C)(C)CCC1 [TRETINOIN] | > 10 µM

tested on: SBC-5; experiment: cells; type: functional, cell-based; details: Homo sapiens;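 note: cell viability assay read-out, IC50 is the concentration that inhibits growth of the cells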
Description: SANGER: Inhibition of human SBC-5 cell growth in a cell viability assay.

Row | SMILES | IC50
33 | CC1=C(/C=C/C(C)=C/C=C/C(C)=C/C(=O)O)C(C)(C)CCC1 [TRETINOIN] | > 10 µM

tested on: SK-OV-3; experiment: cells; type: functional, cell-based; details: Homo sapiens;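 note: growth inhibition of SK-OV-3 human cells, read out with a cell viability assay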
Description: SANGER: Inhibition of human SK-OV-3 cell growth in a cell viability assay.

Row | SMILES | IC50
34 | CC1=C(/C=C/C(C)=C/C=C/C(C)=C/C(=O)O)C(C)(C)CCC1 [TRETINOIN] | > 10 µM

tested on: SNU-423; experiment: cells; type: functional, cell-based; details: Homo sapiens
Description: SANGER: Inhibition of human SNU-423 cell growth in a cell viability assay.

Row | SMILES | IC50
35 | CC1=C(/C=C/C(C)=C/C=C/C(C)=C/C(=O)O)C(C)(C)CCC1 [TRETINOIN] | > 10 µM

tested on: SW1088; experiment: cells; type: functional, cell-based; details: Homo sapiens;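 note: growth inhibition of human SW1088 cells, read out by a cell viability assay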
Description: SANGER: Inhibition of human SW1088 cell growth in a cell viability assay.

Row | SMILES | IC50
36 | CC1=C(/C=C/C(C)=C/C=C/C(C)=C/C(=O)O)C(C)(C)CCC1 [TRETINOIN] | > 10 µM

tested on: SW48; experiment: cells; type: functional, cell-based; details: Homo sapiens;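 note: growth inhibition of SW48 cells, read out with a cell viability assay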
Description: SANGER: Inhibition of human SW48 cell growth in a cell viability assay.

Row | SMILES | IC50
37 | CC1=C(/C=C/C(C)=C/C=C/C(C)=C/C(=O)O)C(C)(C)CCC1 [TRETINOIN] | > 10 µM

tested on: T47D; experiment: cells; type: functional, cell-based; details: Homo sapiens;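 note: growth inhibition of human T47D cells, measured with a cell viability assay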
Description: SANGER: Inhibition of human T47D cell growth in a cell viability assay.

Row | SMILES | IC50
38 | CC1=C(/C=C/C(C)=C/C=C/C(C)=C/C(=O)O)C(C)(C)CCC1 [TRETINOIN] | > 10 µM

tested on: CWR22R; experiment: cells; type: functional, cell-based; details: Homo sapiens, 22Rv1;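 note: growth inhibition of 22Rv1 cells, read out with a cell viability assay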
Description: SANGER: Inhibition of human 22RV1 cell growth in a cell viability assay.

Row | SMILES | IC50
39 | CC1=C(/C=C/C(C)=C/C=C/C(C)=C/C(=O)O)C(C)(C)CCC1 [TRETINOIN] | > 10 µM

tested on: 639-V; experiment: cells; type: functional, cell-based; details: Homo sapiens;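 note: growth inhibition of 639-V cells, read out with a cell viability assay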
Description: SANGER: Inhibition of human 639-V cell growth in a cell viability assay.

Row | SMILES | IC50
40 | CC1=C(/C=C/C(C)=C/C=C/C(C)=C/C(=O)O)C(C)(C)CCC1 [TRETINOIN] | > 10 µM

tested on: ASPC1; experiment: cells; type: functional, cell-based; details: Homo sapiens;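 note: growth inhibition of AsPC-1 cells, read out with a cell viability assay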
Description: SANGER: Inhibition of human AsPC-1 cell growth in a cell viability assay.

Row | SMILES | IC50
41 | CC1=C(/C=C/C(C)=C/C=C/C(C)=C/C(=O)O)C(C)(C)CCC1 [TRETINOIN] | > 10 µM

tested on: C32; experiment: cells; type: functional, cell-based; details: Homo sapiens;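 note: cell viability assay, with IC50 reflecting inhibition of C32 cell growth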
Description: SANGER: Inhibition of human C32 cell growth in a cell viability assay.

Row | SMILES | IC50
42 | CC1=C(/C=C/C(C)=C/C=C/C(C)=C/C(=O)O)C(C)(C)CCC1 [TRETINOIN] | > 10 µM

tested on: CAL-120; experiment: cells; type: functional, cell-based; details: Homo sapiens;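 note: cell growth inhibition, read out as cell viability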
Description: SANGER: Inhibition of human CAL-120 cell growth in a cell viability assay.

Row | SMILES | IC50
43 | CC1=C(/C=C/C(C)=C/C=C/C(C)=C/C(=O)O)C(C)(C)CCC1 [TRETINOIN] | > 10 µM

tested on: CAL-27; experiment: cells; type: functional, cell-based; details: Homo sapiens;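 note: Viability-based readout, IC50 reflecting inhibition of CAL-27 cell growth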
Description: SANGER: Inhibition of human CAL-27 cell growth in a cell viability assay.

Row | SMILES | IC50
44 | CC1=C(/C=C/C(C)=C/C=C/C(C)=C/C(=O)O)C(C)(C)CCC1 [TRETINOIN] | > 10 µM

tested on: CAL-62; experiment: cells; type: functional, cell-based; details: Homo sapiens;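 note: growth inhibition of CAL-62 cells, read out with a cell viability assay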
Description: SANGER: Inhibition of human CAL-62 cell growth in a cell viability assay.

Row | SMILES | IC50
45 | CC1=C(/C=C/C(C)=C/C=C/C(C)=C/C(=O)O)C(C)(C)CCC1 [TRETINOIN] | > 10 µM

tested on: UACC-62; experiment: cells; type: functional, cell-based; details: Homo sapiens;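 note: growth inhibition of human UACC-62 cells, read out by a cell viability assay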
Description: SANGER: Inhibition of human UACC-62 cell growth in a cell viability assay.

Row | SMILES | IC50
46 | CC1=C(/C=C/C(C)=C/C=C/C(C)=C/C(=O)O)C(C)(C)CCC1 [TRETINOIN] | > 10 µM

tested on: VMRC-RCZ; experiment: cells; type: functional, cell-based; details: Homo sapiens;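 note: growth inhibition measured with a cell viability assay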
Description: SANGER: Inhibition of human VMRC-RCZ cell growth in a cell viability assay.

Row | SMILES | IC50
47 | CC1=C(/C=C/C(C)=C/C=C/C(C)=C/C(=O)O)C(C)(C)CCC1 [TRETINOIN] | > 10 µM

tested on: CHL-1; experiment: cells; type: functional, cell-based; details: Homo sapiens;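 note: cell growth inhibition, read out with a cell viability assay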
Description: SANGER: Inhibition of human CHL-1 cell growth in a cell viability assay.

Row | SMILES | IC50
48 | CC1=C(/C=C/C(C)=C/C=C/C(C)=C/C(=O)O)C(C)(C)CCC1 [TRETINOIN] | > 10 µM
